{
  "source": "patent US7419788B2",
  "about": "“Method for screening anti-bacterial agents” (priority 2001, dated 2008)",
  "biological_target": "T1, transpeptidase enzyme (PBP1b) (Escherichia coli, UniProt P02919)",
  "T1 construct": "the ponB gene encoding PBP1b is overexpressed since the strain contains a plasmid comprising a further copy of ponB under the control of its native promoter; made in house; host or cells: Escherichia coli AMA1004 ΔponA; pBS96 (membranes solubilised with 1% CHAPS and 1M NaCl; supernatant used)",
  "T1 sequence (P02919 whole entry)": "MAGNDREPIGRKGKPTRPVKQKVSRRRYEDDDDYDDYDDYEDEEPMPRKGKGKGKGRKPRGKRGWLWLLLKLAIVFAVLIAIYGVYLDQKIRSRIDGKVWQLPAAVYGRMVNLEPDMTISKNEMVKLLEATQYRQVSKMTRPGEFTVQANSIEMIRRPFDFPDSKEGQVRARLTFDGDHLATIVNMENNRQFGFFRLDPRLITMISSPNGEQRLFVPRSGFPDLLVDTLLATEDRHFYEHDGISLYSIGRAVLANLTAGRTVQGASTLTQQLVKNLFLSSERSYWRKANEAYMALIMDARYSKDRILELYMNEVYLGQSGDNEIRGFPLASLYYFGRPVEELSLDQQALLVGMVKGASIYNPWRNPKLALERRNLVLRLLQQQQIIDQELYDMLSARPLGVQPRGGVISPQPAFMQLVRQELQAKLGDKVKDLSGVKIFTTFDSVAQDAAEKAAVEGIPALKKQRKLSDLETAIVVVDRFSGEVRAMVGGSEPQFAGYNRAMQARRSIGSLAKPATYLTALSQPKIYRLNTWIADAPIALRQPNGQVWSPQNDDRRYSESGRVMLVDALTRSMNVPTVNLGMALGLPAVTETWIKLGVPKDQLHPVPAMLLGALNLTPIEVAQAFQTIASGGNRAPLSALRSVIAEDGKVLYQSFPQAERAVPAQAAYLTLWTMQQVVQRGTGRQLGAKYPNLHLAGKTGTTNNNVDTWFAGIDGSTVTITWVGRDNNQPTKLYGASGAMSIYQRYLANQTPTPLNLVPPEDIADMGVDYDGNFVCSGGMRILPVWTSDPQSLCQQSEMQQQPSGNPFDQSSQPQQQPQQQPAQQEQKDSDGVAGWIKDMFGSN",
  "experiment": "Scintillation proximity assay for formation of radiolabelled cross-linked peptidoglycan (transpeptidase inhibition)",
  "assay_type": "biochemical",
  "experimental": "4 mg of Escherichia coli AMA1004 cell membranes prepared as described in WO 99/60155 were incubated with 5 ml of 100 mM ampicillin in 50 mM Tris HCl buffer pH 7.5 and 0.1 mM MgCl2 for 30 minutes at room temperature. The membranes were sedimented by centrifugation at 150,000×g for 15 minutes and then washed three times. They were finally resuspended in 1 ml of 50 mM Tris HCl buffer and 0.1 mM MgCl2. […]\nThe membranes of this E. coli strain were prepared as described in WO 99/60155. They were then treated with a detergent, 1% (3-[(3-cholamidopropyl)dimethylammonio]-1-propane-sulphonate (CHAPS), and 1M NaCl at a protein concentration of 5 mg/ml for 1 hour at room temperature. The mixture was then centrifuged at 150,000×g for 15 minutes in a Beckman table top ultracentrifuge and the supernatant containing PBP1b collected. The quantity of PBP1b protein used was the “soluble fraction” equivalent to 5 μg of starting membrane. […]\nThe microtitre plate was left for 3 to 10 hours at room temperature before being counted in the “Microbeta Trilux” counter. […]\nTable 1 below enumerates the inhibitory effects of penicillin G on the transpeptidase enzyme (after subtracting the corresponding 0% reaction readings).",
  "data": [
    {"smiles": "CC1(C)S[C@@H]2[C@H](NC(=O)Cc3ccccc3)C(=O)N2[C@H]1C(=O)O", "note": "[Penicillin G, penicillin G]", "values": [
      {"measurement": "Counts per minute", "setting": "after subtracting the corresponding 0% reaction readings, PBP1b extract from E. coli AMA1004 ΔponA, pBS96, ampicillin-treated AMA1004 membranes, 37° C. for 15 minutes", "value": 319},
      {"measurement": "% Inhibition", "setting": "inhibitory effect on the transpeptidase enzyme, relative to wells with no test compound (100% reaction controls), test concentration not given", "value": 94, "unit": "%"}
    ]}
  ]
}
